From ChEMBL document CHEMBL3507680, “University of Dundee, Gates Library screen for HepG2 cell viability”

Assay: Human HepG2 cell viability assay in 384 well format
Assay type: toxicity, cell-based
Parameters: dose 125 nL, time 70.5 hour; cytotoxicity at 70.5 h: concentration not given beside the values
Settings: HepG2 cells, read-out: Inhibition

| SMILES | cytotoxicity at 70.5 h [%] |
| --- | --- |
| Cc1ccc(Cl)cc1NC(=O)C1CSc2ncc(C)c(=O)n2C1 (configuration not stated) | -13.9 |
| CC(C)(C)c1cc(=O)n2c(n1)SCC(C(=O)NCc1ccccn1)C2 (configuration not stated) | -5.78 |
| CC(C)(C)c1cc(=O)n2c(n1)SCC(C(=O)NCc1ccco1)C2 (configuration not stated) | 29.2 |
| CCc1c(C)nc2n(c1=O)CC(C(=O)Nc1sccc1C(=O)OC)CS2 (configuration not stated) | -6.34 |
| CN(C)c1ccc(C(O)CNS(=O)(=O)C2CC2)cc1 (configuration not stated) | 10.1 |
| CCCc1nnsc1C(=O)NCC(O)c1ccc(SC)cc1 (configuration not stated) | 28.8 |
| COCCN(Cc1ccoc1)C(=O)CSc1ccc(F)cc1 | -5.61 |
| COCCN(Cc1ccoc1)S(=O)(=O)c1ccc(F)c(Cl)c1 | 42.1 |
| COCCN(Cc1ccoc1)S(=O)(=O)c1cccc(C(F)(F)F)c1 | -13.5 |
| CCOc1ccccc1C(=O)NCCC(O)c1ccoc1 (configuration not stated) | 9.07 |
| O=C(COc1ccccc1F)NCCC(O)c1ccoc1 (configuration not stated) | -4.07 |
| CCc1ccc(S(=O)(=O)NCCC(O)c2ccoc2)s1 (configuration not stated) | -10.1 |
| COc1ccc(S(=O)(=O)NCCC(O)c2ccoc2)c(C)c1 (configuration not stated) | -5.52 |
| Cc1cc(C(O)CCNC(=O)c2ccc(Cl)s2)c(C)o1 (configuration not stated) | -8.23 |
| COc1ccc(S(=O)(=O)NCCC(O)c2cc(C)oc2C)c(C)c1 (configuration not stated) | -5.42 |
| COC1(CNC(=O)c2cccc(C#N)c2)CCSC1 (configuration not stated) | 42.8 |
| COC1(CNC(=O)NCCc2ccccc2)CCSC1 (configuration not stated) | 15.9 |
| COc1ncccc1C(=O)Nc1ccccc1-c1ccc(=O)n(C)n1 | 3.64 |
| COCC(=O)Nc1ccccc1-c1ccc(=O)n(C)n1 | -4.15 |
| COc1ccc(C(=O)Nc2ccccc2-c2ccc(=O)n(C)n2)nn1 | 1.94 |
| Cc1cccc(NC(=O)c2ccc(-n3cncn3)nn2)n1 | -1.44 |
| O=C(NCCn1nc(-n2cncn2)ccc1=O)c1ccc(F)cc1F | -5.23 |

| SMILES | cytotoxicity at 70.5 h [%] |
| --- | --- |
| CCSc1ccccc1C(=O)NCCn1nc(-n2cncn2)ccc1=O | -10.2 |
| Cc1csc(C(=O)N2CCC(S(C)(=O)=O)C2)c1 (configuration not stated) | -3.26 |
| O=C(c1ccccn1)N1CCC(S(=O)(=O)c2ccccc2)C1 (configuration not stated) | -9.33 |
| Cc1csc(C(=O)N2CCC(S(C)(=O)=O)CC2)c1 | -5.62 |
| O=S(=O)(CC1CCCN1S(=O)(=O)c1cccnc1)c1ccccc1 (configuration not stated) | -8.38 |
| Cc1nn(C)c(C)c1S(=O)(=O)NCC(C)(O)c1ccc2c(c1)OCO2 (configuration not stated) | -1.59 |
| Cn1cnc(S(=O)(=O)NCC2(O)CCc3ccccc32)c1 (configuration not stated) | 9.61 |
| Cn1cnc(S(=O)(=O)NCC2CCN(C(=O)Oc3ccccc3)CC2)c1 | 0.307 |
| O=c1[nH]c2cc(S(=O)(=O)N3CCC(c4ccsc4)CC3)ccc2o1 | -5 |
| Cn1cc(C(=O)Nc2ccc(CC(=O)NC3CC3)cc2)nn1 | -6.27 |
| Cn1cc(S(=O)(=O)NCc2ccsc2)cn1 | 13.8 |
| Cn1cc(S(=O)(=O)NCC2CCN(C(=O)Oc3ccccc3)CC2)cn1 | 2.31 |
| COc1ccc(CC(=O)Nc2c(C)nc(N3CCCC3)nc2C)cc1 | -2.54 |
| Cc1nc(N2CCCC2)nc(C)c1NC(=O)c1ccco1 | -1.46 |
| Cc1nc(N2CCOCC2)nc(C)c1NC(=O)c1ccco1 | 3.55 |
| Cc1nc(N(C)C)nc(C)c1NS(=O)(=O)c1ccc(OC(F)(F)F)cc1 | -6.13 |
| Cc1cc(N2CCCC2)nc(CNS(=O)(=O)Cc2ccccc2)n1 | -7.92 |
| CC(=O)N1CCN(c2cc(N(C)C)cnn2)CC1 | -3.71 |
| CN(C)c1cnnc(N2CCN(C(=O)CCC3CCCCC3)CC2)c1 | -7.83 |
| CN(C)c1cnnc(N2CCN(C(=O)Cc3ccccc3)CC2)c1 | -8 |
| CC(=O)N1CCN(c2cnnc(N3CCCC3)c2)CC1 | -1.26 |
| CS(=O)(=O)N1CCN(c2cnnc(N3CCCC3)c2)CC1 | -12.9 |

| SMILES | cytotoxicity at 70.5 h [%] |
| --- | --- |
| CC(=O)N1CCN(c2cc(N3CCOCC3)cnn2)CC1 | 6.14 |
| CCOc1ncc(NC(=O)c2ccccn2)c(OCC)n1 | -13.3 |
| CCCS(=O)(=O)NCCn1ccc(-c2cccs2)n1 | 25.9 |
| Cc1nnsc1C(=O)NCc1nn(C2CCCC2)c2c1CCCC2 | -5.38 |
| Cn1nc(CNC(=O)c2ccc(OC(F)(F)F)cc2)c2c1CCOC2 | 2.03 |
| Cc1ccc(N2CCc3sc(C(=O)N4CCOCC4)cc32)nn1 | 2.34 |
| COCCn1cc2c(n1)C(CNS(C)(=O)=O)OCC2 (configuration not stated) | -2.51 |
| O=C(Nc1ccccc1)C1=NOC2(CCCN(C(=O)N3CCCC3)C2)C1 (configuration not stated) | -0.586 |
| CCOCc1ncn2c1CN(C(=O)Nc1ccc(CC)cc1)CC2 | 14.1 |
| Cc1cccc(NC(=O)N2CCn3cnc(COCC4CC4)c3C2)c1 | -13.2 |
| CCOCc1ncn2c1CN(C(=O)Nc1cccc(F)c1)CC2 | -13.3 |
| Cc1nc(N(C)C)nc2c1COCC21CCN(C(=O)C2CC2)C1 (configuration not stated) | -3.72 |
| CN(C)c1ncc(-c2cc(C(=O)NC(C)(C)CO)n(CC3CC3)c2)cn1 | -12.5 |
| CCOCC1CN(Cc2ccc3c(c2)OCO3)Cc2ncn(C)c21 (configuration not stated) | -10.5 |
| CO[C@@H]1CCN(c2ncc(F)cn2)[C@H]1Cc1cnn(C)c1 | -11.6 |
| O=C([C@H]1C[C@H]2[C@H](CCN2Cc2cccs2)O1)N1CCOCC1 | -16.9 |
| CC(C)NC(=O)N1CCC2(CC(=O)N(c3ccsc3)C2)C1 (configuration not stated) | -14.3 |
| CC(C)CCC(=O)N1CC[C@@H]2[C@H](CC1)N(S(C)(=O)=O)CCS2(=O)=O | -10.2 |
| O=C([C@H]1CCCO1)N1CCc2ncnc(C3CC3)c2CC1 | -11.8 |
| CC(C)Nc1ncnc2c1CCN(Cc1ccoc1)CC2 | -12.6 |
| CN(C)Cc1nn(C)c2c1CCN(C(=O)c1cccnc1)C2 | -20.7 |
| Cc1cccc(C(=O)N2CCc3c(CN(C)C)nn(C)c3C2)n1 | -14.3 |

| SMILES | cytotoxicity at 70.5 h [%] |
| --- | --- |
| COc1cc(N2CC[C@@H](OC)[C@@H]2Cc2cnn(C)c2)ncn1 | 33.8 |
| O=C(c1cscn1)N1C[C@@H](Oc2cccnc2)[C@H]2OCCC[C@H]21 | 26.4 |
| COc1cc(N2CC[C@@H]3O[C@H](C(=O)NCC4CC4)C[C@@H]32)ncn1 | 16.5 |
| COc1cc(N2CC[C@@H]3O[C@@H](C(=O)NCCN(C)C)C[C@@H]32)ncn1 | -9.68 |
| Cc1ccc(NCc2cncc3c2CCN(Cc2ccccn2)C3)nn1 | -13.4 |
| CNC(=O)CN1CC[C@H]2CN(C(=O)c3cc[nH]n3)C[C@H]2C1 | -8.85 |
| Cc1cccc(CN2CC3(CCN(C(=O)N(C)C)CC3)OCC2=O)n1 | -0.965 |
| O=C(NCC1CCOCC1)[C@H]1C[C@@H]2CCN(c3nncs3)C[C@@H]2O1 | -9.76 |
| COCCNC(=O)[C@H]1C[C@@H]2CCN(c3ccccc3)C[C@H]2O1 | -9.93 |
| O=C(NC1CC1)[C@@H]1CCO[C@@H]2CCN(CCc3ccccc3)C[C@@H]21 | -6.53 |
| Cn1cc(CN2CCC(F)(F)C3(CCN(c4ncc(F)cn4)C3)C2)cn1 (configuration not stated) | -13.8 |
| O=C([C@@H]1CCO[C@@H]2CCN(CCc3ccccc3)C[C@@H]21)N1CCCC1 | 15.3 |
| Cn1cc(CN2C[C@H]3CCC[C@@H](CNc4ncccn4)[C@H]3C2)cn1 | -3.23 |
| Cn1ccnc1NC[C@@H]1CCC[C@@H]2CN(Cc3cccnc3)C[C@@H]21 | 14.5 |
| c1ccc(NC[C@@H]2CCC[C@@H]3CN(Cc4cccnc4)C[C@@H]32)nc1 | -5.9 |
| CS(=O)(=O)N1CCO[C@H]2[C@@H](Oc3ncccc3F)CC[C@@H]21 | -5.41 |
| O=C([C@H]1CC[C@@H]2[C@@H](CCN2Cc2nccs2)O1)N1CCOCC1 | -5.21 |
| O=C(NCC1CCOCC1)[C@@H]1C[C@@H]2[C@@H](CCN2Cc2nccs2)O1 | -12.1 |
| O=C(c1ccnnc1)N1C[C@H](Oc2ccccn2)[C@H]2OCCC[C@H]21 | -8.72 |
| O=C(N[C@@H]1CN(Cc2ccoc2)[C@@H]2CCCO[C@@H]21)C1CC1 | -12.9 |
| CC1=N[C@@]2(CC[C@@H]3CN(Cc4ccccc4)C[C@@H]32)C(=O)N1CC1CC1 | -21.6 |
| O=C(N1CCOCC1)N1CCc2ncnc(NC3CCC3)c2CC1 | -14.5 |

| SMILES | cytotoxicity at 70.5 h [%] |
| --- | --- |
| CC(C)NC(=O)N1CCOC2(CCCN(c3ncccc3F)C2)C1 (configuration not stated) | -13.6 |
| CCN1CCn2c(C)cnc2C12CCN(C(=O)NCC(C)C)CC2 | -11.3 |
| CN1CCS(=O)(=O)[C@@H]2CCN(C(=O)CC(C)(C)C)CC[C@@H]21 | -3.84 |
| Cc1nc(CN2CC[C@@H]3O[C@@H](C(=O)N4CCOCC4)C[C@@H]32)cs1 | -9.93 |
| CCN1CCn2c(C)cnc2C12CCN(C(=O)NC)CC2 | -6.2 |
| CN(C)C(=O)N[C@H]1CN(Cc2ccc3c(c2)OCO3)[C@@H]2CCCO[C@H]12 | -12.8 |
| COCC1Cn2nnc(-c3cnn(C)c3)c2CN1Cc1ccoc1 (configuration not stated) | -8.84 |
| CC(C)NC(=O)N1Cc2nccn2CC(COc2cccnc2)C1 (configuration not stated) | 9.72 |
| c1cncc(C2COC3(CCN(Cc4nccs4)CC3)C2)c1 (configuration not stated) | -9.69 |
| Cn1cc2c(n1)C(CNCc1ccco1)OCC2 (configuration not stated) | 19.8 |
| COCC1CC2(CCN(Cc3ccc(C)o3)CC2)CN1C(C)C (configuration not stated) | -3.1 |
| COCC1CN(Cc2ccc3c(c2)OCO3)Cc2ncn(C)c21 (configuration not stated) | -12.8 |
| COCCN1CCn2c(CN(C)C(C)C)cnc2C1 | -7.59 |
| CCN1CCn2c(C)cnc2C12CCN(C(=O)c1ccco1)CC2 | -4.85 |
| CCN1CCn2c(C)cnc2C12CCN(C(=O)COC)CC2 | 25 |
| CCN1CCn2c(C)cnc2C12CCN(C(=O)Cc1ccccc1)CC2 | 24.6 |
| CN1CCN(Cc2cnc3n2CCN(CCc2ccccc2)C3)CC1 | 19.5 |
| c1cncc(CN2CCO[C@H]3[C@H](OCCN4CCCC4)CC[C@@H]32)c1 | -8.38 |
| CN1C(Cn2cccn2)C[C@@H]2CN(Cc3ccccn3)CC[C@@H]21 (some centres not stated) | -10.5 |
